Test results: patent US20070105115A1, “Promoter of the human fatp5 gene and uses” (MERCK SANTE, priority 2003, published 2007)

Assays:
[1] = test system: ZDF rats; assay: Reversal of the diabetic phenotype in the ZDF rat by an insulin sensitizer; assay type: in vivo; details: LGD 1069 in food 0.3-30 mg/kg/day for 50 days from age 7 weeks
Protocol: Male diabetic fatty rats (Zucker diabetic fatty rats (ZDF rats)) are kept in an animal house with free access to food and water, the nyctohemeral rhythm being observed. The compound LGD 1069 is added to the food at a dose of 0.3, 1.0, 3.0, 10 or 30 mg/kg/day and administered for 50 days as from the age of 7 weeks. 4 animals are fed without the addition of LGD 1069: 2 ZDF and 2 ZLC. The animals are fasted and sacrificed the next day. The tissues are collected and frozen immediately in liquid nitrogen.

[2] = test system: FATP5; assay: Hepatic FATP5 expression (Northern blotting) in ZDF rats treated with LGD 1069; assay type: in vivo, rat; details: LGD 1069 in food 0.3-30 mg/kg/day for 50 days from age 7 weeks; Northern blot; FIG. 15
Protocol: Male diabetic fatty rats (Zucker diabetic fatty rats (ZDF rats)) are kept in an animal house with free access to food and water, the nyctohemeral rhythm being observed.
The compound LGD 1069 is added to the food at a dose of 0.3, 1.0, 3.0, 10 or 30 mg/kg/day and administered for 50 days as from the age of 7 weeks. 4 animals are fed without the addition of LGD 1069: 2 ZDF and 2 ZLC. The animals are fasted and sacrificed the next day. The tissues are collected and frozen immediately in liquid nitrogen.
The hepatic RNAs are extracted by the conventional technique derived from Chomczynski and Sacchi. The expression is analysed by Northern blotting with hybridization using a radioactive cDNA probe specific for FATP5.

C=C(c1ccc(C(=O)O)cc1)c1cc2c(cc1C)C(C)(C)CCC2(C)C [RXR agonist, bexarotene]
development of diabetes [1]: reverses the development of diabetes | Negative regulation of the expression of FATP5 in the liver of ZDF rats compared with ZLC rats [2]: counteracted
